Here are results for 22 compounds from US20110008461A1 (priority 2008, published 2011).

The structures appear in SMILES notation. Where “and” joins values, the source holds several entries; their conditions need not be identical. Identical values can stand only once. Counter-ions that a name gives are not always drawn. Like-named read-outs stand apart in the source and are kept apart here. Marks after values point to notes of the source that are not given here. Bounds are passed on as bounds.

For this experiment, the target named is T1, Rat Liver Cytosolic Phosphoenolpyruvate Carboxykinase (Rattus norvegicus, UniProt P07379).
T1 sequence (P07379 1-622): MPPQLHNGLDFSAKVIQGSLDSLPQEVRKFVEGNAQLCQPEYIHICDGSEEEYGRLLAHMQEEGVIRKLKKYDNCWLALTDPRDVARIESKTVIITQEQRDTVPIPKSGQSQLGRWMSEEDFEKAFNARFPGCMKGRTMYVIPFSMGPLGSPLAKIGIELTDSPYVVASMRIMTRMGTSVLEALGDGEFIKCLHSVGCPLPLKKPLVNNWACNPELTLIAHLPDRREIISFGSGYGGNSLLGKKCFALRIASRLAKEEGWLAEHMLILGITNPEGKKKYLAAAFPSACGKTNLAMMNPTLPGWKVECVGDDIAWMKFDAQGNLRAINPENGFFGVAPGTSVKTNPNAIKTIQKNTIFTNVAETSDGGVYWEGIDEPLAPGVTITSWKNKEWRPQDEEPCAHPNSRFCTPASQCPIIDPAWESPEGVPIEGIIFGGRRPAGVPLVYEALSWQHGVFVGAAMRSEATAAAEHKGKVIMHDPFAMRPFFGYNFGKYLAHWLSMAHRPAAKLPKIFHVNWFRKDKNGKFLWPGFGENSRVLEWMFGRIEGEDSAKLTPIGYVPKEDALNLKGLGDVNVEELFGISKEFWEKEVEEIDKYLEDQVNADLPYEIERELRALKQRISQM
Nature of the experiment: Continuous spectrophotometric PEPCK inhibition assay coupled to malate dehydrogenase (preliminary screen, inhibition patterns, Dixon plots).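 As to all read-outs here: PEPCK activity followed continuously via malate dehydrogenase coupling, where OAA reduction consumes NADH, seen as falling absorbance at 340 nm, run at 35 °C.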 The note with it: for Inhibition of PEPCK (in words): against PEP.

Where [1] appears, read: analogue 3 mM, PEP 40 μM, preliminary screen, average of two PEPCK preparations.
Setting [2] is: from Dixon plots using two PEP concentrations.
Setting [3] is: analogue 6 mM, PEP 40 μM, preliminary screen, average of two PEPCK preparations.

Take `O=C(O)CC(=O)O` [Compound 2, Malonate]: the “% Activity Remaining” value under setting [1] is given as 102^c %.

For the compound `O=C(O)CCC(=O)O` [Compound 3, Succinate], the “% Activity Remaining” value under setting [1] is 91^c %. For the same compound, the Ki under setting [2] is above 8000 µM.

For `O=C(O)CC(C(=O)O)S(=O)(=O)O` (stereo not shown) [Compound 4, Sulfosuccinate], the “% Activity Remaining” value is recorded as 55^c %; the Ki was ~3300 µM and 3300 µM.

As for `O=C(O)/C=C\C(=O)O` [Compound 5, Maleate], the “% Activity Remaining” value under setting [3] is recorded as 52^e %. The Ki was around 2000 µM under setting [2] and 2000 µM (from Dixon plots using two PEP concentrations, listed as Maleate (5)).

`O=C(O)/C=C/C(=O)O` [Compound 6, Fumarate]: the “Inhibition of PEPCK (in words)” value is “did not inhibit”. Moreover, the “% Activity Remaining” value under setting [3] is reported as 83^e %.

Consider `C=C(CC(=O)O)C(=O)O` [Compound 7, Itaconate], for which the “% Activity Remaining” value under setting [1] is recorded as 91^c %.

Take `O=C(O)C1CCCC1C(=O)O` (stereo not shown) [Compound 8, 1,2-Cyclopentanedicarboxylate]: the “% Activity Remaining” value is given as 91^c %.

Consider `N[C@@H](CC(=O)O)C(=O)O` [Compound 9, L-Aspartate], for which the “% Activity Remaining” value under setting [1] is on record as 112^c %.

Consider `O=C(O)CP(=O)(O)O` [Compound 11, Phosphonoacetate], for which the “Inhibition of PEPCK (in words)” value is recorded as “noninhibitory”. Moreover, under setting [1], the “% Activity Remaining” value is recorded as 108^c %.

With `O=C(O)[C@@H](CO)OP(=O)(O)O` [Compound 14, 2-D-Phosphoglycerate], the “Inhibition of PEPCK (in words)” value was “noninhibitory”. For the same compound, under setting [1], the “% Activity Remaining” value is given as 110^c %.

For `C=C(CP(=O)(O)O)C(=O)O` [Compound 15, 2-(Phosphonomethyl)acrylate], the “Inhibition of PEPCK (in words)” value was “noninhibitory”. In addition, the “% Activity Remaining” value under setting [1] is recorded as 92^c %.

Consider `O=C(O)[C@H](O)[C@@H](O)[C@H](O)[C@H](O)COP(=O)(O)O` [Compound 16, 6-phosphogluconate], for which the “Inhibition of PEPCK (in words)” value is “does not inhibit”. Also, the “% Activity Remaining” value under setting [1] is 117^c %.

Regarding `O=C(O)CNCP(=O)(O)O` [Compound 17, N-Phosphonomethylglycine], the “% Activity Remaining” value under setting [1] is 104^c %.

As to `NC(CP(=O)(O)O)C(=O)O` (stereo not shown) [Compound 18, 2-Amino-3-phosphonopropionate], the “Inhibition of PEPCK (in words)” value is listed as “fails to inhibit”. Further, the “% Activity Remaining” value under setting [1] is given as 94^c %.

With `NC(CCP(=O)(O)O)C(=O)O` (stereo not shown) [Compound 19, 2-Amino-4-phosphonobutyrate], under setting [1], the “% Activity Remaining” value is given as 104^c %.

With `NC(CCCP(=O)(O)O)C(=O)O` (stereo not shown) [Compound 20, 2-Amino-5-phosphonovalerate], the “% Activity Remaining” value is on record as 98^f %.

Regarding `N[C@@H](COP(=O)(O)O)C(=O)O` [Compound 21, Serine phosphate], the “% Activity Remaining” value (analogue 1.5 mM, PEP 40 μM, preliminary screen, average of two PEPCK preparations) is 108^f %.

Regarding `CC(C)(C(=O)O)S(=O)(=O)O` [Compound 24, 2,2-Dimethylsulfoacetate], the “Ki relative to sulfoacetate” value is recorded as 25 fold and the “Pattern of Inhibition” value is on record as “Competitive”. Also, the “% Activity Remaining” value under setting [1] is on record as 65^c %. Moreover, the affinity (pH 7), expressed as Ki, was 2100 ± 200 µM.

As for `O=C(O)CCS(=O)(=O)O` [Compound 25, 3-Sulfopropionate], the “Inhibition of PEPCK (in words)” value is “poor inhibitor”. Also, for the setting “PEP varied substrate”, the “Pattern of Inhibition” value is on record as “Competitive”. This compound gave an inhibitory constant (Ki) (PEP varied substrate, Cleland kinetics program, 35° C., pH 7.0) of 3400 ± 300 µM. Further, the “% Activity Remaining” value under setting [1] is listed as 69^c %.

In the case of `N[C@@H](CS(=O)(=O)O)C(=O)O` [Compound 26, Cysteic acid], the “Inhibition of PEPCK (in words)” value is “even less inhibitory”. Moreover, the “% Activity Remaining” value under setting [1] is 76^c %.

As for `N[C@@H](CS(=O)O)C(=O)O` [Compound 27, Cysteine sulfinic acid], the “Inhibition of PEPCK (in words)” value was “does not cause inhibition”. For the same compound, under setting [1], the “% Activity Remaining” value is on record as 105^c %.

With `O=P(O)(O)OP(=O)(O)O` [Compound 28, Pyrophosphate], the “% Activity Remaining” value is reported as 22^f % and the affinity corresponds to a Ki of 172 µM. For the same compound, the Ki (read-out: Ki, intercept effect (Kii)) was 63 µM and 64 µM. For the same compound, the Ki (read-out: Ki, slope effect (Kis)) stood at 34 µM.

One may read the Ki as the dissociation constant of the complex between target and ligand, obtained from inhibition or displacement.
